These results are taken from patent US6992193B2, “Sulfonylamino phenylacetamide derivatives and methods of their use” (Adolor Corporation, priority 2003, dated 2006).

As a reminder, the IC50 is the concentration that gives 50% inhibition. What is called Ki is the equilibrium dissociation constant of an inhibitor or competing ligand from its target. By EC50 is commonly meant the concentration that produces a half-maximal response. Higher therefore signals weaker potency.

Structures are written as SMILES. Counter-ions that a name gives are not always drawn. Like-named read-outs stand apart in the source and are kept apart here.

In one series the target is CYP3A4 (Homo sapiens, UniProt P08684). The series can be described thus: Inhibition of CYP3A4 conversion of dibenzylfluorescein to fluorescein. The conditions noted are these: DBF to fluorescein conversion; read-out: IC50(CYP3A4). The series is classed as in vitro ADME. On the procedure:
(§1) Inhibition of CYP2C9 and CYP3A4
(§2) These assays were carried out as described using CYP2C9 and CYP3A4 conversion of dibenzylfluorescein (DBF) to fluorescein (F).

The target in series [1] is T1, cloned human μ opioid receptor (Homo sapiens, UniProt P35372).
T1 construct: expressed in transfected cells
The series can be described thus: [3H]diprenorphine binding to cloned human μ opioid receptor. On the procedure:
(§3) IC50 values were obtained by nonlinear analysis of the data using GraphPad Prism version 3.00 for Windows (GraphPad Software, San Diego). Ki values were obtained by Cheng-Prusoff corrections of IC50 values.
(§4) After dilution in buffer A and homogenization as before, membrane proteins (10-80 μg) in 250 μL were added to mixtures containing test compound and [^3H]diprenorphine (0.5 to 1.0 nM, 40,000 to 50,000 dpm) in 250 μL of buffer A in 96-well deep-well polystyrene titer plates (Beckman). After incubation at room temperature for one hour, the samples were filtered through GF/B filters that had been presoaked in a solution of 0.5% (w/v) polyethylenimine and 0.1% (w/v) bovine serum albumin in water. The filters were rinsed 4 times with 1 mL of cold 50 mM Tris HCl, pH 7.8 and radioactivity remaining on the filters determined by scintillation spectroscopy. Nonspecific binding was determined by the minimum values of the titration curves and was confirmed by separate assay wells containing 10 μM naloxone.
(§5) To determine the equilibrium dissociation constant for the inhibitors (Ki), radioligand bound (cpm) in the presence of various concentrations of test compounds was measured. […] The nonlinear regression fit was performed using the program Prism® (GraphPad Software, San Diego, Calif.). The Ki values were then determined from the […] values by the following equation, [formula] • where [ligand] is the concentration of radioligand; and • Kd is the equilibrium dissociation constant for the radioligand.

In another series the target is CYP2C9 (Homo sapiens, UniProt P11712). Description: Inhibition of CYP2C9 conversion of dibenzylfluorescein to fluorescein. Format: in vitro ADME. The conditions noted are these: DBF to fluorescein conversion; read-out: IC50(CYP2C9). The procedure: as §1, §2
Series [2] concerns the target T2, cloned human δ opioid receptor (Homo sapiens, UniProt P41143).
T2 construct: expressed in transfected cells
Description: [3H]diprenorphine binding to cloned human δ opioid receptor. The procedure:
as §3, §4, §5

Series [3] has as its system cytochrome P450 enzymes (CYP2D6, CYP3A4, CYP2C9). The series can be described thus: Overall evaluation of inhibition of major drug metabolizing hepatic cytochrome P450 enzymes. The series is classed as in vitro ADME, human.
For a further series, the target named is T3, CYP2D6 (Homo sapiens, UniProt P10635).
T3 construct: purchased BD Biosciences
The series can be described thus: Inhibition of CYP2D6 catalyzed conversion of MAMC to HAMC. The following applies: MAMC to HAMC conversion; for IC50: read-out: IC50(CYP2D6). The series is classed as in vitro ADME. On the procedure:
Inhibition of CYP2D6 Catalyzed Conversion of MAMC to HAMC
Microsomes containing baculovirus expressed human recombinant CYP2D6 and MAMC were purchased from BD Biosciences. The method is a modification of the method provided by BD Biosciences.
• Assay Buffer=50 mM KPO4, 15 μg/mL NADP^+, 0.30 mg/mL glucose-6-phosphate, 0.20 mg/mL MgCl2, 0.96 U/mL glucose-6-phosphate dehydrogenase, 2.5 μM MAMC, pH 7.4. • Dilution Buffer=50 mM KPO4, pH 7.4 • Enzyme Buffer=150 mM KPO4, pH 7.4 • Stop Solution=80% acetonitrile, 20% 0.5 M Tris Base Procedure:
The assays were done in black 96 well plates (VWR Cat# 22221-572) and contained: 40 μL assay buffer, 10 μL test compound in dilution buffer and 50 μL of 10-15 pmol/mL CYP2D6 in enzyme buffer. Final concentrations: (100 mM KPO4, pH 7.4, 7.9 μM NADP^+, 0.36 mM glucose-6-phosphate, 0.4 mM MgCl2, 0.38 U/mL glucose-6-phosphate dehydrogenase, 1 μM MAMC (BD Biosciences), 0.5 pmol CYP2D6 (BD Biosciences))
For large experiments, assay buffer and test compound were added using the MiniTrak IV (Packard Biosciences), otherwise they were added using 25-250 μL and 5-100 μL 8 channel electronic pipettors (BioHit). CYP2D6 was added using 25-250 μL 8 channel electronic pipettor.
Titrations are done in either 96 well deep-well plates (Beckman) or 96 well microtiter plates (Costar), an initial dilution in dilution buffer is prepared from stock solutions in DMSO to start either 8 (1:6) or 12 (1:3.15) serial dilutions. For 1:6 dilutions, 50 μL for each dilution is transferred to 250 μL dilution buffer. For 1:3.15 dilutions, 50 μL for each dilution is transferred to 108 μL dilution buffer. Further details on concentrations will be provided in each experiment. Titrations are done using either 25-250 μL 8 channel electronic pipettor, 30-300 μL 12 channel manual pipettor (Spectrum), or the Multiprobe II. For screening, dilution plates are prepared in dilution buffer in 96 well microtiter plates from masterplates in 100% DMSO using the Multiprobe II or MiniTrak IV. After assay buffer and test compound has been added, the plates and the enzyme buffer are prewarmed at 37° C. for 15 minutes. After prewarming, CYP2D6 is added to then enzyme buffer and then added to the assay plate using 25-250 μL 8 channel electronic pipettor and the plates are incubated for 15 minutes at 37° C. After incubation, 50 μL stop solution is added using 25-250 μL 8 channel electronic pipettor. The plates are then counted on the Fusion (Packard Biosciences) for 4 sec/well using and excitation filter of 390 nm and an emission filter of 460 nm, intensity setting of 1, high detector sensitivity.
Non-specific relative fluorescent units (RFU) are determined in the presence of 10 μM quinidine in wells A1, B1, and C1 of each plate and total RFU determined in wells D1, E1, F1 in the absence of test compound. Specific HAMC production is the difference between total and nonspecific. For each compound, a percent inhibition of HAMC production is calculated by: % I=(1−(A/B))*100 • where A=cpm specifically bound for test compound • B=cpm specifically bound in the absence of test compound For experiments where the plates are registered in the biological database, % I is determined automatically by the biological database. Titrations
IC50's are calculated using nonlinear regression to a one-site model using GraphPad Prism or a VB algorithm fitting the data to that equation.

Another series concerns the target T4, cloned human κ receptors (Homo sapiens, UniProt P41145).
T4 construct: expressed in transfected cells
Description: [35S]GTPγS binding stimulation, membranes containing cloned human κ receptors. Format: biochemical. The following applies: half-maximal stimulation of [35S]GTPγS binding, cloned human κ receptor. On the procedure: The potencies of the agonists were assessed by their abilities to stimulate [^35S]GTPγS binding to membranes containing the cloned human κ receptors.
To determine the EC50 value, which was the concentration to give half-maximal stimulation of [^35S]GTPγS binding, the amount of [^35S]GTPγS bound in the presence of various concentrations of agonists was measured. The EC50 value was then determined.
On the technique in general: GTPγS is a poorly hydrolysed GTP analogue; its binding reports G protein activation.

For series [4], the target named is T5, cloned human κ opioid receptor (Homo sapiens, UniProt P41145).
T5 construct: expressed in transfected cells
The series can be described thus: [3H]diprenorphine binding to cloned human κ opioid receptor. On the procedure: as §3, §4
To determine the equilibrium dissociation constant for the inhibitors (Ki), radioligand bound (cpm) in the presence of various concentrations of test compounds was measured. […] The nonlinear regression fit was performed using the program Prism® (GraphPad Software, San Diego, Calif.).

The mark [5] stands for this setting: inhibition of [3H]diprenorphine binding, cloned human μ receptor, read-out: Ki(μ).

T2 sequence (P41143 whole entry): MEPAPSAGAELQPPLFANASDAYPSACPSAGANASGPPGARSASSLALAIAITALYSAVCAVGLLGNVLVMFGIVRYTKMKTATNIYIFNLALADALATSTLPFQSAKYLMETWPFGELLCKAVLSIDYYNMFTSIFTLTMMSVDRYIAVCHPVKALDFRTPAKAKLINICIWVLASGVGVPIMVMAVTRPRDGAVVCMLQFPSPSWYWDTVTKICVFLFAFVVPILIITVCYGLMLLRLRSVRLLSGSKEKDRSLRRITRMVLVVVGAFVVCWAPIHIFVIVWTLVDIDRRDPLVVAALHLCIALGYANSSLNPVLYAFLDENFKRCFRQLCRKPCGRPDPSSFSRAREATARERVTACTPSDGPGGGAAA
T4 sequence (P41145 whole entry): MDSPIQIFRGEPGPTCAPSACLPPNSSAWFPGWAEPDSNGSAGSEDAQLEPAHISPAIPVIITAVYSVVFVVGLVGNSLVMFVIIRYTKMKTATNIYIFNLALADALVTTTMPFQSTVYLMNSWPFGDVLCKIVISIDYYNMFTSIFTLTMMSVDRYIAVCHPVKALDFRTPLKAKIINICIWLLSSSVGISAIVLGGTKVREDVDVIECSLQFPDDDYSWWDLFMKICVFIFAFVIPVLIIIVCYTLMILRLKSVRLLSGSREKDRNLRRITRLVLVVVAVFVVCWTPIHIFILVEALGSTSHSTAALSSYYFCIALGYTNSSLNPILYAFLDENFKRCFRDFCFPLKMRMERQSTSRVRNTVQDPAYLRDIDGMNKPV
T5 sequence (P41145 whole entry): as above
CYP2C9, sequence (P11712 whole entry): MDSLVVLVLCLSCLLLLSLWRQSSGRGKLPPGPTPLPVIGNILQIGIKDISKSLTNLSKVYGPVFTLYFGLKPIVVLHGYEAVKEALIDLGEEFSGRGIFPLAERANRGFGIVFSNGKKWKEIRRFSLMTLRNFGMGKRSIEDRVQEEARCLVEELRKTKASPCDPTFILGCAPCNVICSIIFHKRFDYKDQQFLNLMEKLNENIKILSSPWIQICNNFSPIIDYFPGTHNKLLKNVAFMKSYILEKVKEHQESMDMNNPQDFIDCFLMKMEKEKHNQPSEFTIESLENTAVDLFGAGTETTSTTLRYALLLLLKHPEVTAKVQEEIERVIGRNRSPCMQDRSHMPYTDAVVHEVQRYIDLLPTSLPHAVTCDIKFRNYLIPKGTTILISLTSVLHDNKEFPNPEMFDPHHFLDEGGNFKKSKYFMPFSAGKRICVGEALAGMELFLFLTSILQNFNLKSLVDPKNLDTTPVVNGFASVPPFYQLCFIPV
T1 sequence (P35372 whole entry): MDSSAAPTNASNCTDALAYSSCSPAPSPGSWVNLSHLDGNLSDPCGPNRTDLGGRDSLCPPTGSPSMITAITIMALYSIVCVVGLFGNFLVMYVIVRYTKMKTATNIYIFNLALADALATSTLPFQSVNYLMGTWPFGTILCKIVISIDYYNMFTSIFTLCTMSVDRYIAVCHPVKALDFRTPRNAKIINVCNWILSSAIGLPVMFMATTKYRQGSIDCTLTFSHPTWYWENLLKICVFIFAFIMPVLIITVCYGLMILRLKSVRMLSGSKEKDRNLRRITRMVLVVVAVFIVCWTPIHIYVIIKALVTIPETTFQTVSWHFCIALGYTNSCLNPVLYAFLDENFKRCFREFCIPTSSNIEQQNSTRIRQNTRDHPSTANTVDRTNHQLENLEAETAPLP
T3 sequence (P10635 whole entry): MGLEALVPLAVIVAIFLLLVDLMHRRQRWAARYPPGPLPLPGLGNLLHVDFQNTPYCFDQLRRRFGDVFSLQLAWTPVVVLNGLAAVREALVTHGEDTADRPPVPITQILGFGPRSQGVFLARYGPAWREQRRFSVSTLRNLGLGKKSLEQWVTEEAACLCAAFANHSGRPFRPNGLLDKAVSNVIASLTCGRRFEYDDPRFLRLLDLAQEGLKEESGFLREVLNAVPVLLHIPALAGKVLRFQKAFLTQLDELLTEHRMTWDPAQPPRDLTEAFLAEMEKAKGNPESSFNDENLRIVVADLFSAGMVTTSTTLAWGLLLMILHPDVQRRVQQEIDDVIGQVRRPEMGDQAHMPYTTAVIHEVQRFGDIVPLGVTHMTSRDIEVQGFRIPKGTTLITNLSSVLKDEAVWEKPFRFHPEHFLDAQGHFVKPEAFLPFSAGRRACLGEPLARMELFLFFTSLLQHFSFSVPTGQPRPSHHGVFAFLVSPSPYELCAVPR
CYP3A4, sequence (P08684 whole entry): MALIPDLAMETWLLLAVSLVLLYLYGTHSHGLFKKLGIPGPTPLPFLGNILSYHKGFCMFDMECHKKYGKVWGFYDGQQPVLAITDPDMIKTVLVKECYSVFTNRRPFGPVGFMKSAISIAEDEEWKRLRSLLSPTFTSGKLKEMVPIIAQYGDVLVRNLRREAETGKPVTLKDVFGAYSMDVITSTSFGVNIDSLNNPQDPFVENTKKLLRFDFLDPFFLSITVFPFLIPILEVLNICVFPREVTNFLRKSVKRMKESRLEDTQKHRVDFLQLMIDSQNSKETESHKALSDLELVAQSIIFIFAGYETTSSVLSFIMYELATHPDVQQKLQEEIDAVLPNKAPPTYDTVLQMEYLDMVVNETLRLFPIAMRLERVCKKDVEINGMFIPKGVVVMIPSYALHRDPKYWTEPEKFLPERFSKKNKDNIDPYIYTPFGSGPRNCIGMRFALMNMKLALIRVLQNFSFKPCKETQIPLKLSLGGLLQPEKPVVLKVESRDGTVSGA

Take `CCCS(=O)(=O)NCc1ccc(CC(=O)N(C)[C@H](CN2CC[C@H](O)C2)c2ccccc2)cc1.Cl` [Example 16, N-{2-[3-(S)-hydroxy-pyrrolidin-1-yl]-1-(S)-phenyl-ethyl}-N-methyl-2-{4-[(propane-1-sulfonylamino)-methyl]-phenyl}-acetamide hydrochloride]: the IC50 at CYP3A4, at CYP2C9 and on CYP2D6 was above 10000 nM in each case. Also, the values for the Ki in series [1] and in series [2] were 730 nM and 100 nM, respectively. Besides, the “activity toward the cytochrome P450 (summary in words)” value (“activity toward the cytochrome P450” below) in series [3] is “metabolically stable in regard to their activity toward the cytochrome P450”.
With `CN(C(=O)Cc1ccc(CNS(=O)(=O)c2cccs2)cc1)[C@H](CN1CC[C@H](O)C1)c1ccccc1` [Example 22, N-{2-[3-(S)-hydroxy-pyrrolidin-1-yl]-1-(S)-Phenyl-ethyl}-N-methyl-2-{4-[(thiophene-2-sulfonylamino)-methyl]-phenyl}-acetamide hydrochloride], the IC50 was 4400 nM at CYP3A4, above 10000 nM on CYP2C9 and 5800 nM at CYP2D6. The Ki in series [1] turned out to be 1100 nM; in series [2] it was 56 nM; in series [4] it was 2.9 nM. For the same compound, on cloned human κ receptors, the EC50 worked out at 4.9 nM.
As to `Cc1noc(C)c1S(=O)(=O)NCc1ccc(CC(=O)N(C)[C@H](CN2CC[C@H](O)C2)c2ccccc2)cc1` [Example 23, 2-{4-[(3,5-dimethyl-isoxazole-4-sulfonylamino)-methyl]-phenyl}-N-{2-[3-(S)-hydroxy-pyrrolidin-1-yl]-1-(S)-phenyl-ethyl}-N-methyl-acetamide hydrochloride], the concentration for half-maximal inhibition (IC50) is 4300 nM at CYP3A4, above 10000 nM on CYP2C9 and 11000 nM at CYP2D6. Besides, the Ki in series [1] amounted to 1400 nM; in series [2] it was 320 nM; in series [4], 25 nM. For the same compound, the EC50 at cloned human κ receptors came out at 52 nM.
With `CN(C(=O)Cc1ccc(CN(C)S(C)(=O)=O)cc1)[C@H](CN1CC[C@H](O)C1)c1ccccc1.Cl` [Example 24, N-{2-[3-(S)-hydroxy-pyrrolidin-1-yl]-1-(S)-phenyl-ethyl}-2-{4-[(methanesulfonyl-methyl-amino)-methyl]-phenyl}-N-methyl-acetamide hydrochloride], the IC50 at CYP3A4, at CYP2C9 and on CYP2D6 was above 10000 nM each time. In addition, the Ki in series [1] was determined as 200 nM; in series [2], 540 nM; in series [4], 14 nM. For the same compound, in series [3], the “activity toward the cytochrome P450” value is given as “metabolically stable in regard to their activity toward the cytochrome P450”. On cloned human κ receptors, this compound came in with an EC50 of 55 nM.
In the case of `CN(C(=O)Cc1ccc(CCNS(C)(=O)=O)cc1)[C@H](CN1CC[C@H](O)C1)c1ccccc1.Cl` [Example 26, N-{2-[3-(S)-hydroxy-pyrrolidin-1-yl]-1-(S)-phenyl-ethyl}-2-[4-(2-methanesulfonylamino-ethyl)-phenyl]-N-methyl-acetamide hydrochloride], the IC50 at CYP3A4 and at CYP2C9 was above 10000 nM in each case. Also, the Ki in series [1] (setting [5]) turned out to be 790 nM; in series [2], 110 nM. Moreover, in series [3], the “activity toward the cytochrome P450” value is reported as “metabolically stable in regard to their activity toward the cytochrome P450”. In addition, the half-inhibitory concentration (IC50) at 15 min against CYP2D6 (human, pH 7.4, probe MAMC (1 µM)) is 10000 nM.
Regarding `CN(C(=O)Cc1ccc(CCCNS(C)(=O)=O)cc1)[C@H](CN1CC[C@H](O)C1)c1ccccc1.Cl` [Example 27, N-{2-[3-(S)-hydroxy-pyrrolidin-1-yl]-1-(S)-phenyl-ethyl}-2-[4-(3-methanesulfonylamino-propyl)-phenyl]-N-methyl-acetamide hydrochloride], the IC50 at CYP3A4, on CYP2C9 and on CYP2D6 was above 10000 nM throughout. In addition, the inhibition constant Ki in series [1] (setting [5]) is 320 nM; in series [2] (inhibition of [3H]diprenorphine binding, cloned human δ receptor, read-out: Ki(δ)) it was 240 nM. Further, in series [3], the “activity toward the cytochrome P450” value is given as “metabolically stable in regard to their activity toward the cytochrome P450”.
With `CC(C)[C@@H](CN1CC[C@H](O)C1)N(C)C(=O)Cc1ccc(CNS(C)(=O)=O)cc1.O=C(O)C(F)(F)F` [Example 28, N-{1-[3-(S)-hydroxy-pyrrolidin-1-ylmethyl]-2-methyl-(S)-propyl}-2-[4-(methanesulfonylamino-methyl)-phenyl]-N-methyl-acetamide trifluoroacetate], the IC50 at CYP3A4, at CYP2C9 and at CYP2D6 was above 10000 nM each time. Besides, the figures for the Ki in series [1], in series [2] and in series [4] were above 3000 nM, above 3000 nM and 6.2 nM, respectively. Besides, the “activity toward the cytochrome P450” value in series [3] is recorded as “metabolically stable in regard to their activity toward the cytochrome P450”. Besides, the response on cloned human κ receptors was half-maximal at 79 nM (EC50).
Regarding `CS(=O)(=O)NCc1ccc(CC(=O)N2CCCC[C@H]2CN2CC[C@H](O)C2)cc1.O=C(O)C(F)(F)F` [Example 29, N-[4-(2-{2-[3-(S)-hydroxy-pyrrolidin-1-ylmethyl]-(S)-piperidin-1-yl}-2-oxo-ethyl)-benzyl]-methanesulfonamide trifluoroacetate], the IC50 on CYP3A4, at CYP2C9 and on CYP2D6 was above 10000 nM throughout. The Ki in series [1] is above 3000 nM; in series [2], above 3000 nM; in series [4], 2.1 nM. For the same compound, the “activity toward the cytochrome P450” value in series [3] is “metabolically stable in regard to their activity toward the cytochrome P450”. At cloned human κ receptors, this compound displayed an EC50 of 27 nM.
